From article PMC9025336 (Antibiotics, 2022)
Peptide text beside a SMILES is read from it. * marks the point of attachment. Orn(α-tetramethylguanidino) = CN(C)C(=N[C@@H](CCCN)C(=O)*)N(C)C

What was measured:
[1] = system: 70S ribosome, ribosomal binding site of Api805; assay: Fluorescence polarization competition with cf-Api805; design: species or system Escherichia coli; conditions: Figure S2, twice in triplicate
Protocol: Ki was determined for ribosome extracts using cf-labeled and unlabeled peptides in ribosome preparation buffer. Black 384-well plates were prepared as described above. Unlabeled peptides or antibiotics (20 μL, 656 μmol/L) were added and 2-fold serially diluted in 23 wells in ribosome preparation buffer. […] The fluorescence polarization was measured on a […] microplate reader in the top read position (λexc = 485 nm, λem = 535 nm) in triplicate on at least two different days. […] Inhibition constants, Ki, were calculated as described by Mathias and Jung. page 9: 140 140 120 120 100 100 80 80 60 60 40 40 […]. […]. […] 0 0 -20 -20 10 -2 1 10 2 10 4 10 6 10 -2 1 10 2 10 4 10 6 Pept ide Concent r at ion [ nM] Pept ide Concent r at ion [ nM] 140 140 120 120 100 100 80 80 60 60 40 40 20 Chlor […] ol vs. […] -20 -20 10 -2 1 10 2 10 4 10 6 10 -2 1 10 2 10 4 10 6 Ant ibiot ic Concent r at ion [ nM] Antibiotic Concentration [nM] 140 120 100 80 60 40 […] -20 10 -2 1 10 2 10 4 10 6 Ant ibiot ic Concent r at ion [ nM] Figure S2. […] tested as control in competition with Api137 or erythromycin. Experiments were done twice in triplicates. Error bars show the standard deviation of all six replicates. The horizontal dotted line separates positive and negative ranges on the Y-axis. - S9 - (also on this page, place not known: […]

E. coli Rosetta = assay: Uptake of cf-labeled PrAMPs; assay type: cell-based, Escherichia coli
Protocol: Bacteria were grown in 25% MHBII medium overnight, diluted fourfold with fresh medium, and incubated to obtain an OD600 of ~1. The cultures were adjusted to an OD600 of 1, and cf-labeled peptide was added to achieve a final concentration of 23 µmol/L (~64 µg/mL). After 0 min, 90 min, and 180 min, two aliquots (300 µL) of the culture were transferred to two tubes. One tube was immediately stored on ice in the dark. The second sample was centrifuged (10,000× g, 4 °C, 3 min), and the supernatant was transferred to a fresh tube and stored on ice in the dark. The pellet was washed with ice cold PBS (300 µL) and centrifuged (10,000× g, 4 °C, 3 min), and the supernatant was transferred into a fresh tube. Both the supernatant and the pellet resuspended in 300 µL ice cold PBS were stored on ice in the dark. After 180 min, an aliquot of the unprocessed sample (100 µL) was transferred to a translucent 96-well plate, and the absorbance was measured at 600 nm. Aliquots (100 µL) of the original cell culture, supernatants, wash solutions, and resuspended pellets were transferred into black 96-well plates to measure the fluorescence in a PARADIGM^TM microplate reader in the top read position (λexc = 485 nm, λem = 535 nm). Experiments were performed three times on different days. The relative fluorescence units were normalized to the measured OD600 values of the cell culture.

[2] = system: 70S ribosome extract of E. coli BW25113; assay: Fluorescence polarization, Kd of cf-labeled peptides; assay type: binding, Escherichia coli; conditions: determined for the cf-labeled peptide; BW25113 ribosome extract; 28 °C, 90 min; 95% confidence interval in brackets; triplicate on at least two days; read-out: Kd, BW
Protocol: E. coli BW25113 and E. coli Rosetta pLysS were cultivated in LB medium and harvested at an OD600 of ~4 by centrifugation (5000× g, 30 min, 4 °C). The cell pellets were washed by resuspension in ribosome preparation buffer (20 mmol/L Hepes-KOH, 6 mmol/L MgCl2, 30 mmol/L NH4Cl, pH 7.6, 4°C) and subsequent centrifugation (5000× g, 30 min, 4 °C). Cell pellets were suspended in ribosome preparation buffer ([…]) containing freshly added 2-mercapotethanol (4 mmol/L). Lysozyme was added to the resuspended cells and incubated on ice for 30 min. The cell suspension was disrupted six times using a FastPrep-24^TM 5G instrument (MP Biomedicals, Solon, OH, USA) with BigPrep 50 mL setting (40 s, 4.0 m/s), incubated with DNase I (5 mL/L) on ice for one hour and centrifuged (16,000× g, 30 min, 4 °C). The cell debris was removed from the supernatant by centrifugation (32,000× g, 60 min, 4 °C), and the supernatant was centrifuged again (165,000× g, 17 h, 4 °C). The pellet was resuspended in ribosome preparation buffer (0.1 mL per g cell pellet) to obtain the 70S ribosome extract and stored at −80 °C. The ribosome concentration was estimated by recording the absorbance at 260 nm (1 AU for a ribosome concentration of 28 nmol/L). The molecular weight of the 70S E. coli ribosome was assumed to be 2.3 MDa.
Kd was determined using a ribosome extract and cf-labeled peptides in ribosome preparation buffer. Briefly, black 384-well plates (flat bottom, Greiner Bio-One GmbH) were blocked with casein (0.5%, w/v) in phosphate buffer containing 0.05% (v/v) Tween 20 at 4 °C overnight and washed three times with phosphate buffer. A 2-fold dilution series of the ribosome extract (20 μL per well) in ribosome preparation buffer was prepared in a black 384-well plate (23 dilution steps). The cf-labeled peptide was dissolved in ribosome preparation buffer (20 μL, 40 nmol/L), added to each well, and incubated at 28 ± 1 °C. After 90 min, the fluorescence polarization was measured on a PARADIGMTM microplate reader (Beckman Coulter, Salzburg, Austria) in the top read position (λexc = 485 nm, λem = 535 nm) in triplicate on at least two different days. Data were fitted to a nonlinear, dose–response logistical transition equation [y= y0 + a/(1 + (x/x0)b)] using the Levenberg–Marquardt algorithm, with dissociation constants (Kd) represented by the x0 coefficients (GraphPad Prism for Windows v. 5.02, San Diego, CA, USA).

[3] = cf-labeled peptides 23 µmol/L, normalized fluorescence after 180 min

Compound	inhibition of the binding of cf-labeled Api805 [1]	normalized uptake of E. coli Rosetta, in words (E. coli Rosetta; cf-labeled peptides 23 µmol/L, 0, 90, 180 min)	Kd [2] [nM]	uptake in E. coli Rosetta compared with E. coli BW25113 (E. coli Rosetta; cf-labeled peptide 23 µmol/L, normalized fluorescence (OD600) after 180 min)	uptake in E. coli Rosetta compared with Api88 (E. coli Rosetta; [3])	uptake in E. coli Rosetta compared with Api137 (E. coli Rosetta; [3])
CC[C@H](C)[C@H](NC(=O)[C@H](Cc1ccc(O)cc1)NC(=O)[C@@H](NC(=O)[C@@H]1CCCN1C(=O)[C@H](CCCNC(=N)N)NC(=O)[C@H](CC(N)=O)NC(=O)[C@H](CC(N)=O)NC(=O)[C@H](CCCN)N=C(N(C)C)N(C)C)C(C)C)C(=O)N1CCC[C@H]1C(=O)N[C@@H](CCCNC(=N)N)C(=O)N1CCC[C@H]1C(=O)N[C@@H](CCCNC(=N)N)C(=O)N1CCC[C@H]1C(=O)N1CCC[C@H]1C(=O)N[C@@H](Cc1c[nH]cn1)C(=O)N1CCC[C@H]1C(=O)N[C@@H](CCCNC(=N)N)C(=O)N[C@@H](CC(C)C)C(=O)O [Api137] ({Orn(α-tetramethylguanidino)}-NNRPVYIPRPRPPHPRL-OH)	none inhibited	lowest uptake	382			
CC[C@H](C)[C@H](NC(=O)[C@@H]1CCCN1C(=O)[C@H](CCCNC(=N)N)NC(=O)[C@H](CC(N)=O)NC(=O)[C@H](CC(N)=O)NC(=O)CN)C(=O)N[C@@H](Cc1ccc(O)cc1)C(=O)N[C@H](C(=O)N1CCC[C@H]1C(=O)N[C@@H](CCCNC(=N)N)C(=O)N1CCC[C@H]1C(=O)N[C@@H](CCCNC(=N)N)C(=O)N1CCC[C@H]1C(=O)N1CCC[C@H]1C(=O)N[C@@H](Cc1c[nH]cn1)C(=O)N1CCC[C@H]1C(=O)N[C@@H](CCCNC(=N)N)C(=O)N1CCC[C@H]1C(=O)N[C@H](C(=O)N[C@@H](CCCNC(=N)N)C(=O)N[C@H](C(=O)O)C(C)C)[C@@H](C)CC)[C@@H](C)CC [Api805] (H-GNNRPIYIPRPRPPHPRPIRV-OH; N-terminus assumed)	did not inhibit		557	approximately threefold higher	twofold higher	fivefold higher
CC[C@H](C)[C@H](NC(=O)[C@H](Cc1ccc(O)cc1)NC(=O)[C@@H](NC(=O)[C@@H]1CCCN1C(=O)[C@H](CCCNC(=N)N)NC(=O)[C@H](CC(N)=O)NC(=O)[C@H](CC(N)=O)NC(=O)[C@H](CCCN)N=C(N(C)C)N(C)C)C(C)C)C(=O)N1CCC[C@H]1C(=O)N[C@@H](CCCNC(=N)N)C(=O)N1CCC[C@H]1C(=O)N[C@@H](CCCNC(=N)N)C(=O)N1CCC[C@H]1C(=O)N1CCC[C@H]1C(=O)N[C@@H](Cc1c[nH]cn1)C(=O)N1CCC[C@H]1C(=O)N[C@@H](CCCNC(=N)N)C(=O)N[C@@H](CC(C)C)C(N)=O [Api88] ({Orn(α-tetramethylguanidino)}-NNRPVYIPRPRPPHPRL-NH2)			906			two- to threefold higher
